Measurements published in patent publication US10617612B2, “Composition comprising decanal or as active ingredients for preventing hair loss or stimulating hair growth” (INDUSTRY-ACADEMIC COOPERATION FOUNDATION, YONSEI UNIVERSITY, priority 2016, dated 2020).

What was measured:
[1] = Measurement of body weight change; details: 3 mg/mouse/day applied to back skin once a day
Description: The animals were kept in a temperature of 21±2.0° C., relative humidity of 50±5%, and 12 hours of day and night cycles. During the experiment, the mice were fed with a regular solid feed (chow) with water freely.
To examine the effect of promoting hair growth, 8-week-old mouse of telogen hair showing pink color of dorsal skin was used. After removing the hair of the mouse backing using a clipper for a mouse, the sample was applied once a day at 4:00 PM for four weeks. Decanal (3 mg/mouse/day) which is experimental material and minoxidil (3 mg/mouse/day) used as a reference drug were dissolved in vehicle (ethanol:water:propylene glycol=5:3:2) and applied, and the vehicle only was applied to the negative control group.
The body weight of the experimental animals was measured weekly from immediately before application of the hair growth treatment to the end of application.

[2] = test system: C57BL/6N mice; experiment: Hair regrowth in mice with back hair removed, skin application (visual observation, hair length); format: in vivo; details: 3 mg/mouse/day on back skin once a day
Description: To visually confirm the state of hair growth, after the animals were lightly anesthetized with ether, the back was photographed, at the end of one week, two weeks, three weeks, and four weeks after application begins, Hair length was measured using a ruler to evaluate the degree of hair growth.

[3] = test system: vascular endothelial growth factor (VEGF); experiment: RT-PCR gene expression in back skin tissue; format: in vivo, mouse; details: 4 weeks application
Description: (§1) To quantitatively analyze total RNA in skin tissue of experimental animal, 1 mL of Trizol solution was added to 50-100 mg of skin tissue and homogenized, followed by centrifugation at 12,000×g for 10 minutes at 4° C. After transferring the supernatant liquid to a new tube, 200 μl of chloroform was added and the mixture was vigorously shaken. This process above was repeated twice, then the supernatant liquid was transferred to a new tube and isoprophanol and the supernatant liquid were added at a ratio of 1:1. The mixture was shaken 10 times and then allowed to stand at room temperature for 10 minutes, and the supernatant liquid was removed after centrifugation at 12,000×g for 10 minutes at 4° C., and 1 ml of 70% ethanol was added to the remaining precipitate, and the precipitate was centrifuged at 7,500×g and 4° C. for 5 minutes. After removing the ethanol, the tube containing the RNA precipitate was dried at room temperature for 5 minutes, and the RNA pellet was dissolved using nuclease free water. The concentration of RNA extracted at 260 nm and 280 nm wavelengths was measured using a UV/VIS spectrophotometer (Beckman coulter, DU730), and agarose gel electrophoresis was performed to confirm the integrity of the RNA sample.
(§2) cDNA was synthesized by performing reverse transcription using oligo dT primer and superscript reverse transcriptase (GIBCOBRL, Gaithersburg, Md., USA) after RNA isolation. The cDNA obtained by reverse transcription was determined as a template, and PCR was performed using the 5′ and 3′ flanking sequence of the gene cDNA to be amplified as primers. In this case, primers required were synthesized by a manufacture specialized company of primers (Bionia Co., Ltd., Korea), and the primer sequences were illustrated in Table 1 below. 2 μl of the reacted cDNA reaction mixture and 2.5 units of Taq polymerase (Takara, Japan) were added to a mixture prepared by adding 5 μl of 10× reaction buffer [100 mM KCL, 20 mM Tris-HCL (pH 8.0), 2.5 mM MgCl2], 4 μl of 10 mM dNTP, and 1 μl each of 0.2 μM sense and antisense primer, and the volume was adjusted using 50 μl of distilled water, then PCR was performed using a PCR instrument. […] Since 1 μl of the amplified product was electrophoresed on 1% agarose gel to check the DNA band, gene expression level was evaluated.
(§3) In addition, to investigate hair growth promoting action mechanism of Decanal, the expression change of endocrine factors affecting hair growth was evaluated. The gene expression level of insulin-like growth factor 1 (IGF1), vascular endothelial growth factor (VEGF), hepatocyte growth factor (HGF), and keratinocyte growth factor (KGF), which were growth factors affecting hair growth promotion in back skin tissue, was evaluated. […]

[4] = test system: keratinocyte growth factor (KGF); experiment: RT-PCR gene expression in back skin tissue; format: in vivo, mouse; details: 4 weeks application
Description: as §1, §2, §3

[5] = test system: hepatocyte growth factor (HGF); experiment: RT-PCR gene expression in back skin tissue; format: in vivo, mouse; details: 4 weeks application
Description: as §1, §2, §3

[6] = test system: insulin-like growth factor 1 (IGF1); experiment: RT-PCR gene expression in back skin tissue; format: in vivo, mouse; details: 4 weeks application
Description: as §1, §2, §3

[7] = test system: nematode parasitic on plant roots; details: reported; cited from earlier work
[8] = test system: FZD1 (frizzled receptor 1); experiment: RT-PCR gene expression in back skin tissue; format: in vivo, mouse; details: 4 weeks application
Description: as §1
(§4) cDNA was synthesized by performing reverse transcription using oligo dT primer and superscript reverse transcriptase (GIBCOBRL, Gaithersburg, Md., USA) after RNA isolation. The cDNA obtained by reverse transcription was determined as a template, and PCR was performed using the 5′ and 3′ flanking sequence of the gene cDNA to be amplified as primers. In this case, primers required were synthesized by a manufacture specialized company of primers (Bionia Co., Ltd., Korea), and the primer sequences were illustrated in Table 1 below. 2 μl of the reacted cDNA reaction mixture and 2.5 units of Taq polymerase (Takara, Japan) were added to a mixture prepared by adding 5 μl of 10× reaction buffer [100 mM KCL, 20 mM Tris-HCL (pH 8.0), 2.5 mM MgCl2], 4 μl of 10 mM dNTP, and 1 μl each of 0.2 μM sense and antisense primer, and the volume was adjusted using 50 μl of distilled water, then PCR was performed using a PCR instrument. PCR conditions were set at 94° C. for 4 minutes, 94° C. for 30 seconds, 30 cycles [52° C. for 30 seconds, 72° C. for 45 seconds] and 72° C. for 10 minutes. Since 1 μl of the amplified product was electrophoresed on 1% agarose gel to check the DNA band, gene expression level was evaluated.
(§5) The expression change of Wnt/β-catenin signal transduction material which was known as hair growth promotion mechanism in the back skin tissue of the mice to which the experimental material was applied for 4 weeks, was analyzed by RT-PCR.

[9] = test system: Wnt10b; experiment: RT-PCR gene expression in back skin tissue; format: in vivo, mouse; details: 4 weeks application
Description: as §1, §4, §5

[10] = test system: LRP5 (low-density lipoprotein receptor-related protein 5); experiment: RT-PCR gene expression in back skin tissue; format: in vivo, mouse; details: 4 weeks application
Description: as §1, §4, §5

[11] = test system: Axin; experiment: RT-PCR gene expression in back skin tissue; format: in vivo, mouse; details: 4 weeks application
Description: as §1, §4, §5

[12] = test system: β-catenin; experiment: RT-PCR gene expression in back skin tissue; format: in vivo, mouse; details: 4 weeks application
Description: as §1, §4, §5

[13] = test system: GSK3β (glycogen synthase kinase 3β); experiment: RT-PCR gene expression in back skin tissue; format: in vivo, mouse; details: 4 weeks application
Description: as §1, §4, §5

[14] = test system: embryos of sea urchins and copepods; details: reported physiological activity; cited from earlier work
[15] = test system: β-catenin; experiment: Western blot of back skin tissue; format: in vivo, mouse; details: 4 weeks application
Description: A predetermined amount of visceral fat or liver tissue was homogenized with liquid nitrogen and lysis buffer in a mortar, and then centrifuged at 13,000×g at 4° C. for 20 minutes. And the middle layer was taken and the protein was quantified by the Bradford method. 50 μg of protein was electrophoresed on SDS polyacrylamide gel, electro blotted onto PVDF hyper film, and reacted with β-catenin and β-actin antibody (Cell Signaling Technology, Danvers, Mass., USA), respectively. Signals of each protein were visualized using a chemiluminescent detection system (Amersham) and the band thickness was quantified using Quantity One Analysis Software (Bo-Rad Laboratories).
The Wnt/β-catenin Signal transduction pathway is known to be involved in promoting entry into the anagen by regulating hair follicle cycle. The expression level of β-catenin was analyzed by western blotting in the back skin tissues in order to determine whether the signal transduction pathway related to hair growth promotion was activated.

[16] = test system: hair follicles of back skin; experiment: Histological analysis of back skin (Hematoxylin-Eosin, hair follicle number and diameter); format: in vivo; details: back skin after 4 weeks of application, 3 mg/mouse/day
Description: After 4 weeks of application, the animals were sacrificed and the back skin tissue sample was extracted with scissors and forceps around the area where the experimental material was applied, and fixed with formalin. After each step was dehydrated with alcohol and xylene, the back skin tissue sample was embedded with paraffin, and was cut into 5 μm slice using a microtome, and then paraffin was removed with alcohol and xylene. […] A pathology speculum specialist was examined to evaluate the hair growth cycle, and quantity of hair follicle and diameter were measured on an optical microscope.
The results of measurement of the hair follicle number in each experimental group under an optical microscope of magnification of 40 are illustrated in FIG. 3.

Compound: Nc1cc(N2CCCCC2)nc(N)[n+]1[O-] [MXD, minoxidil, reference compound]
- Body weight after 4 weeks of application, difference between experimental groups [1]: not significantly different

Compound: CCCCCCCCCC=O [DC, Decanal]
- Increase of hair length compared to negative control after 4 weeks ([2]; 4 weeks, p<0.001): 438%
- Visual state of hair growth after 4 weeks ([2]; 4 weeks, vs negative control): hair was grown evenly and heartily in the larger number of individuals compared to the negative control group
- Hair length compared to negative control, from the 2nd week ([2]; measured weekly): significantly increased from the 2nd week
- Onset of hair growth (visual observation) ([2]; negative control: no hair after 2 weeks): hair began to grow from the 2nd week after application
- VEGF gene expression compared to negative control [3]: significantly increased expression
- KGF gene expression compared to negative control [4]: significantly increased expression
- HGF gene expression compared to negative control [5]: significantly increased expression
- IGF1 gene expression compared to negative control [6]: significantly increased expression
- Body weight after 4 weeks of application, difference between experimental groups [1]: not significantly different
- Nematicidal activity [7]: strong nematicidal activity
- FZD1 gene expression compared to negative control [8]: significantly increased
- Wnt10b gene expression compared to negative control [9]: significantly increased
- LRP5 gene expression compared to negative control [10]: significantly increased
- Axin gene expression compared to negative control [11]: significantly decreased
- β-catenin gene expression compared to negative control [12]: significantly increased
- GSK3β gene expression compared to negative control [13]: significantly decreased
- Effect on embryos of sea urchins and copepods [14]: a reproductive failure was induced by inducing apoptosis
- β-catenin protein expression effect compared to minoxidil group [15]: superior to the minoxidil group
- Increase of β-catenin protein expression compared to negative control ([15]; 3 mg/mouse/day): 79%
- Histological appearance of hair follicles [16]: the hair follicle was lengthened and appeared outside the skin
- Increase of hair follicle diameter compared to negative control ([16]; image analysis): 33%
- Increase of number of hair follicles compared to negative control ([16]; magnification of 40): 193%
